Measurements as given in patent publication US12588678B2, “Oxazoline compound, synthesis method therefor and application thereof” (NANKAI UNIVERSITY, priority 2019, dated 2026).

Experiments:
[1] = test system: Tetranychus cinnabarinus mite eggs; test: Activity against mite eggs, dipping method on bean seedling leaves; type: in vivo; conditions: Tetranychus cinnabarinus, 96 h, checked after 4 days; for mortality at 0.1 µg/mL: read-out: mortality of mite eggs (%), 0.1 mg/L; for mortality at 1 µg/mL: read-out: mortality of mite eggs (%), 1 mg/L; for mortality at 10 µg/mL: read-out: mortality of mite eggs (%), 10 mg/L; for mortality at 100 µg/mL: read-out: mortality of mite eggs (%), 100 mg/L; for mortality at 200 µg/mL: read-out: mortality of mite eggs (%), 200 mg/L; for mortality at 0.5 µg/mL: read-out: mortality of mite eggs (%), 0.5 mg/L
Description: (§1) The assay examples are used to illustrate the acaricidal activity against Tetranychus cinnabarinus (mortality of mite larvae and mortality of mite eggs) of the compounds having the structure represented by formula (I), and the results are shown in tables 1 to 9, where mortality of mite larvae % =(number of dead mite larvae applied/total number of mite larvae applied)×100, and mortality of mite eggs %= (number of dead mite eggs applied/total number of mite eggs applied)×100.
Tetranychus cinnabarinus bred indoors on bean seedlings was used as a test subject by the dipping method. Move female adult mites onto the newly grown complete bean seedling leaves with two leaves, cut off the bean seedlings, place the bean seedlings in a greenhouse with illumination at 25° C. for laying eggs for 24 hours, then remove adult mites and keep mite eggs. After continuously culturing in the greenhouse for one day, completely soak the bean seedling leaves containing the acarid eggs into the prepared sample solution to be tested for 5-6 seconds by using tweezers, slightly throw off residual liquid, put the bean seedling leaves back to the culture cup, continuously culture for 4 days and then check the result. One of the plants was immersed in a solution containing no sample to be tested and the remaining additives were identical to the sample solution as a blank control. Each compound was replicated three times.

[2] = test system: Tetranychus cinnabarinus mite larvae; test: Larvicidal activity test, dipping method on bean seedling leaves; type: in vivo; conditions: for mortality at 0.1 µg/mL: read-out: mortality of mite larvae (%), 0.1 mg/L; for mortality at 1 µg/mL: read-out: mortality of mite larvae (%), 1 mg/L; for mortality at 10 µg/mL: read-out: mortality of mite larvae (%), 10 mg/L; for mortality at 100 µg/mL: read-out: mortality of mite larvae (%), 100 mg/L; for mortality at 200 µg/mL: read-out: mortality of mite larvae (%), 200 mg/L; for acaricidal activity compared with etoxazole: Tetranychus cinnabarinus eggs and larvae, etoxazole as reference; for mortality at 0.05 µg/mL: read-out: mortality of mite larvae (%), 0.05 mg/L; for mortality at 0.5 µg/mL: read-out: mortality of mite larvae (%), 0.5 mg/L
Description: as §1
Tetranychus cinnabarinus bred indoors on bean seedlings was used as a test subject by the dipping method. Move adult mites onto the newly grown complete bean seedling leaves with two leaves, cut off the bean seedlings, place the bean seedlings in a greenhouse with illumination at 25° C. for laying eggs for 24 hours, then remove adult mites and keep mite eggs. And continuously culture in the greenhouse for 5 days until mite eggs hatch into mite larvae (ensuring that the number of the mites on each tested leaf is not less than 60).
Completely immerse the bean seedling leaves containing the mite larvae into the sample solution to be detected with Tween at the prepared concentration for 5-6 seconds by using tweezers, slightly throw off residual liquid, put the bean seedling leaves back to the culture cup, continuously culture for 4 days and check the result. One of the plants was immersed in a solution containing no sample to be tested and the remaining additives were identical to the sample solution as a blank control. Each compound was replicated three times.

[3] = Tetranychus cinnabarinus, 96 h, checked after 4 days

| SMILES | mortality at 0.1 µg/mL [1] | mortality at 1 µg/mL [1] | mortality at 10 µg/mL [1] | mortality at 100 µg/mL [1] | mortality at 200 µg/mL [1] | mortality at 0.1 µg/mL [2, 3] | mortality at 1 µg/mL [2, 3] | mortality at 10 µg/mL [2, 3] | mortality at 100 µg/mL [2, 3] | mortality at 200 µg/mL [2, 3] | mortality at 0.05 µg/mL ([1]; read-out: mortality of mite eggs (%), 0.05 mg/L) | acaricidal activity compared with etoxazole [2] | mortality at 0.05 µg/mL [2, 3] | mortality at 0.5 µg/mL [1] | mortality at 0.5 µg/mL [2, 3] | mortality at 0.001 µg/mL ([1]; read-out: mortality of mite eggs (%), 0.001 mg/L) | mortality at 0.01 µg/mL ([1]; read-out: mortality of mite eggs (%), 0.01 mg/L) | mortality at 0.001 µg/mL ([2]; Tetranychus cinnabarinus, 96 h, read-out: mortality of mite larvae (%), 0.001 mg/L, checked after 4 days) | mortality at 0.01 µg/mL ([2]; Tetranychus cinnabarinus, 96 h, read-out: mortality of mite larvae (%), 0.01 mg/L, checked after 4 days) |
| --- | --- | --- | --- | --- | --- | --- | --- | --- | --- | --- | --- | --- | --- | --- | --- | --- | --- | --- | --- |
| FCCOCc1ccc(C2COC(c3c(F)cccc3F)=N2)cc1 (stereo not shown) [Compound R2-4] | 70% | 90% | 98% | 100% | 100% | 70% | 85% | 92% | 100% | 100% | – | – | – | – | – | – | – | – | – |
| Fc1cccc(F)c1C1=NC(c2ccc(COc3ccncc3)cc2)CO1 (stereo not shown) [Compound R2-14] | – | – | 50% | 100% | 100% | – | – | – | 65% | 90% | – | – | – | – | – | – | – | – | – |
| Fc1cccc(F)c1C1=NC(c2ccc(CN3CC=CC3)cc2)CO1 (stereo not shown) [Compound R1-6] | – | 50% | 70% | 100% | 100% | – | 50% | 70% | 100% | 100% | – | – | – | – | – | – | – | – | – |
| O=S(=O)(Oc1ccc(C2COC(c3c(F)cccc3F)=N2)cc1)c1ccc(Cl)cc1 (stereo not shown) [Compound R3-8] | – | 70% | 90% | 95% | 100% | 60% | 85% | 98% | 100% | 100% | – | – | – | – | – | – | – | – | – |
| Fc1cccc(F)c1C1=NC(c2ccc(Cn3ccc4c(F)cccc43)cc2)CO1 (stereo not shown) [Compound R1-20] | – | 60% | 80% | 100% | 100% | – | 45% | 70% | 100% | 100% | – | – | – | – | – | – | – | – | – |
| Fc1ccc2c(ccn2Cc2ccc(C3COC(c4c(F)cccc4F)=N3)cc2)c1 (stereo not shown) [Compound R1-22] | 75% | 85% | 90% | 98% | 100% | 70% | 80% | 85% | 100% | 100% | 45% | higher acaricidal activity than etoxazole | 45% | – | – | – | – | – | – |
| CS(=O)(=O)Oc1ccc(C2COC(c3c(F)cccc3F)=N2)cc1 (stereo not shown) [Compound R3-1] | – | 70% | 90% | 95% | 100% | 50% | 80% | 100% | 100% | 100% | – | – | – | – | – | – | – | – | – |
| Fc1cccc(F)c1C1=NC(c2ccc(Cn3cccn3)cc2)CO1 (stereo not shown) [Compound R1-12] | – | – | 50% | 80% | 90% | – | – | 40% | 70% | 100% | – | – | – | – | – | – | – | – | – |
| Fc1cccnc1OCc1ccc(C2COC(c3c(F)cccc3F)=N2)cc1 (stereo not shown) [Compound R2-15] | – | – | 70% | 100% | 100% | – | – | 60% | 80% | 100% | – | – | – | – | – | – | – | – | – |
| O=S(=O)(Oc1ccc(C2COC(c3c(F)cccc3F)=N2)cc1)c1ccc(Br)cc1 (stereo not shown) [Compound R3-9] | 30% | 75% | 90% | 100% | 100% | 70% | 100% | 100% | 100% | 100% | – | equivalent or better acaricidal activity compared with etoxazole | 40% | 60% | 90% | – | – | – | – |
| C#CCCOCc1ccc(C2COC(c3c(F)cccc3F)=N2)cc1 (stereo not shown) [Compound R2-7] | 70% | 90% | 95% | 100% | 100% | 40% | 75% | 90% | 100% | 100% | – | – | – | – | – | – | – | – | – |
| Fc1cccc(F)c1C1=NC(c2ccc(COCC3CCCO3)cc2)CO1 (stereo not shown) [Compound R2-9] | – | 55% | 85% | 100% | 100% | – | 30% | 75% | 95% | 100% | – | – | – | – | – | – | – | – | – |
| Fc1cccc(F)c1C1=NC(c2ccc(COc3ccncn3)cc2)CO1 (stereo not shown) [Compound R2-16] | – | – | 50% | 100% | 100% | – | – | – | 50% | 88% | – | – | – | – | – | – | – | – | – |
| C=C(C)COCc1ccc(C2COC(c3c(F)cccc3F)=N2)cc1 (stereo not shown) [Compound R2-6] | 95% | 100% | 100% | 100% | 100% | 80% | 90% | 100% | 100% | 100% | – | higher acaricidal activity than etoxazole | – | 86% | 80% | 30% | 60% | 21% | 45% |
| Fc1cccc(F)c1C1=NC(c2ccc(COc3ncccn3)cc2)CO1 (stereo not shown) [Compound R2-17] | – | – | 70% | 100% | 100% | – | – | – | 60% | 90% | – | – | – | – | – | – | – | – | – |
| Fc1cccc(F)c1C1=NC(c2ccc(CN3CCOCC3)cc2)CO1 (stereo not shown) [Compound R1-4] | – | – | 50% | 70% | 90% | – | – | 30% | 70% | 90% | – | – | – | – | – | – | – | – | – |
| Fc1cccc(F)c1C1=NC(c2ccc(CN3CCc4ccccc4C3)cc2)CO1 (stereo not shown) [Compound R1-13] | – | 60% | 90% | 100% | 100% | – | 40% | 70% | 88% | 100% | – | – | – | – | – | – | – | – | – |
| C=CS(=O)(=O)Oc1ccc(C2COC(c3c(F)cccc3F)=N2)cc1 (stereo not shown) [Compound R3-6] | – | – | 60% | 80% | 100% | – | 60% | 80% | 80% | 100% | – | – | – | – | – | – | – | – | – |
| COc1ccc2ccn(Cc3ccc(C4COC(c5c(F)cccc5F)=N4)cc3)c2c1 (stereo not shown) [Compound R1-25] | – | 40% | 65% | 90% | 100% | – | – | 20% | 70% | 80% | – | – | – | – | – | – | – | – | – |
| Fc1cccc(F)c1C1=NC(c2ccc(CN3CCCCCCC3)cc2)CO1 (stereo not shown) [Compound R1-3] | – | 55% | 70% | 90% | 100% | – | 55% | 70% | 95% | 100% | – | – | – | – | – | – | – | – | – |
